# Measured values reported in PubChem BioAssay AID248 (DTP/NCI, 2004).
# Values joined by “and” are separate entries in the source; they are usually repeats but may differ in a detail not shown here. Equal values may be shown once. Inconclusive results and toxic doses are left out.
# Tested on: L1210 leukemia ip in BDF1 mice, survival T/C
# Experiment: NCI In Vivo Anticancer Drug Screen. Data for tumor model L1210 Leukemia (intraperitoneal) in B6D2F1 (BDF1) mice
# Conditions: endpoint: mean survival time, higher = longer survival
# Summary of the method: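 Transplanted-tumor mice were given test agent; controls received vehicle only. Survival readings from the two groups were divided (treated over control).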
# [1] = dose: 100.0 mg/kg/injection, schedule: Q01DX009 (ip), vehicle: saline with Tween-80
# [2] = dose: 200.0 mg/kg/injection, schedule: Q01DX009 (ip), vehicle: saline with Tween-80
# [3] = dose: 100.0 mg/kg/injection, schedule: Q04DX002 (ip), vehicle: saline with Tween-80
# [4] = dose: 200.0 mg/kg/injection, schedule: Q04DX002 (ip), vehicle: saline with Tween-80
# [5] = dose: 400.0 mg/kg/injection, schedule: Q04DX002 (ip), vehicle: saline with Tween-80
# [6] = dose: 100.0 mg/kg/injection, schedule: Q04DX002 (ip), vehicle: Klucel (hydroxypropylcellulose) (HPC)
# [7] = dose: 200.0 mg/kg/injection, schedule: Q04DX002 (ip), vehicle: Klucel (hydroxypropylcellulose) (HPC)
# [8] = dose: 100.0 mg/kg/injection, schedule: Q04DX003 (ip), vehicle: saline
# [9] = dose: 200.0 mg/kg/injection, schedule: Q04DX003 (ip), vehicle: saline
# [10] = dose: 400.0 mg/kg/injection, schedule: Q04DX003 (ip), vehicle: saline
# [11] = dose: 100.0 mg/kg/injection, schedule: Q01DX001 (ip), vehicle: saline
# [12] = dose: 200.0 mg/kg/injection, schedule: Q01DX001 (ip), vehicle: saline
# [13] = dose: 400.0 mg/kg/injection, schedule: Q01DX001 (ip), vehicle: saline
# [14] = dose: 50.0 mg/kg/injection, schedule: Q01DX009 (ip), vehicle: Klucel (hydroxypropylcellulose) (HPC)
# [15] = dose: 100.0 mg/kg/injection, schedule: Q01DX009 (ip), vehicle: Klucel (hydroxypropylcellulose) (HPC)
# [16] = dose: 200.0 mg/kg/injection, schedule: Q01DX009 (ip), vehicle: Klucel (hydroxypropylcellulose) (HPC)
# [17] = dose: 100.0 mg/kg/injection, schedule: Q04DX003 (ip), vehicle: Klucel (hydroxypropylcellulose) (HPC)
# [18] = dose: 200.0 mg/kg/injection, schedule: Q04DX003 (ip), vehicle: Klucel (hydroxypropylcellulose) (HPC)
# [19] = dose: 400.0 mg/kg/injection, schedule: Q01DX009 (ip), vehicle: Klucel (hydroxypropylcellulose) (HPC)
# [20] = dose: 400.0 mg/kg/injection, schedule: Q04DX003 (ip), vehicle: Klucel (hydroxypropylcellulose) (HPC)
# [21] = dose: 100.0 mg/kg/injection, schedule: Q04DX003 (ip), vehicle: saline with Tween-80
# [22] = dose: 200.0 mg/kg/injection, schedule: Q04DX003 (ip), vehicle: saline with Tween-80
# [23] = dose: 400.0 mg/kg/injection, schedule: Q04DX003 (ip), vehicle: saline with Tween-80
structure (smiles),measurement,setting,value
O=C(Nc1cccc(Cl)c1)OCC#CCN1CCCC1,T/C,"dose: 5.0 mg/kg/injection, schedule: Q01DX001 (ip), vehicle: saline",105 % of control
same,T/C,"dose: 9.0 mg/kg/injection, schedule: Q01DX001 (ip), vehicle: saline",95 % of control and 101 % of control
same,T/C,"dose: 10.0 mg/kg/injection, schedule: Q01DX001 (ip), vehicle: saline",105 % of control
same,T/C,"dose: 13.0 mg/kg/injection, schedule: Q01DX001 (ip), vehicle: saline",97 % of control and 104 % of control
same,T/C,"dose: 20.0 mg/kg/injection, schedule: Q01DX001 (ip), vehicle: saline",98 % of control and 101 % of control
same,T/C,"dose: 30.0 mg/kg/injection, schedule: Q01DX001 (ip), vehicle: saline",98 % of control and 101 % of control
same,T/C,"dose: 40.0 mg/kg/injection, schedule: Q01DX001 (ip), vehicle: saline",101 % of control
same,T/C,"dose: 80.0 mg/kg/injection, schedule: Q01DX001 (ip), vehicle: saline",111 % of control
Oc1cc(-c2cc(O)c(O)c(O)c2)cc(O)c1O,T/C,[1],104 % of control
same,T/C,[2],108 % of control
C[C@@H]1C[C@@]2(C)[C@@H](CC[C@@H]3[C@@H]2CC[C@]2(C)[C@@H](O)CC[C@@H]32)CC1=O,T/C,"dose: 100.0 mg/kg/injection, schedule: Q01DX Z (sc), vehicle: steriod suspending solution",105 % of control
same,T/C,"dose: 200.0 mg/kg/injection, schedule: Q01DX Z (sc), vehicle: steriod suspending solution",108 % of control
same,T/C,"dose: 400.0 mg/kg/injection, schedule: Q01DX Z (sc), vehicle: steriod suspending solution",105 % of control
same,T/C,"dose: 800.0 mg/kg/injection, schedule: Q01DX Z (sc), vehicle: steriod suspending solution",105 % of control
Cn1c(=O)c(=O)n(C)c2cc(Cl)c(Cl)cc21,T/C,"dose: 100.0 mg/kg/injection, schedule: Q01DX001 (ip), vehicle: carboxymethylcellulose (CMC)",94 % of control
same,T/C,"dose: 200.0 mg/kg/injection, schedule: Q01DX001 (ip), vehicle: carboxymethylcellulose (CMC)",105 % of control
COc1ccc(N=Cc2cc(Br)ccc2O)cc1,T/C,[3],100 % of control
same,T/C,[4],104 % of control
same,T/C,[5],100 % of control
O=C(Nc1ccccc1)Oc1ccc(C2CCCCC2)cc1,T/C,[6],93 % of control
same,T/C,[7],121 % of control
CCOc1ccc(/C=C2\N=C(c3cccc(Cl)c3)OC2=O)cc1,T/C,[3],93 % of control
same,T/C,[4],93 % of control
same,T/C,[5],96 % of control
CCOC(=O)/C=C/P(=O)(OCC)OCC,T/C,[8],108 % of control
same,T/C,[9],94 % of control
same,T/C,[10],96 % of control
C/C(CCO)=N\NC(N)=S,T/C,"dose: 50.0 mg/kg/injection, schedule: Q01DX001 (ip), vehicle: saline",98 % of control
same,T/C,[11],98 % of control
same,T/C,[8],100 % of control
same,T/C,[12],92 % of control
same,T/C,[9],90 % of control
same,T/C,[13],101 % of control
same,T/C,[10],88 % of control
CC(=O)OCCOc1ccc(C(C)(C)C)cc1,T/C,[14],100 % of control
same,T/C,[15],86 % of control and 92 % of control
same,T/C,[6],98 % of control
same,T/C,[16],111 % of control
same,T/C,[7],102 % of control
same,T/C,"dose: 225.0 mg/kg/injection, schedule: Q01DX Z (ip), vehicle: carboxymethylcellulose (CMC)",95 % of control
same,T/C,"dose: 400.0 mg/kg/injection, schedule: Q04DX002 (ip), vehicle: Klucel (hydroxypropylcellulose) (HPC)",115 % of control
same,T/C,"dose: 450.0 mg/kg/injection, schedule: Q01DX Z (ip), vehicle: carboxymethylcellulose (CMC)",102 % of control
CC1=CP(=O)(O)CC1,T/C,"dose: 50.0 mg/kg/injection, schedule: Q01DX009 (ip), vehicle: saline",113 % of control
same,T/C,"dose: 100.0 mg/kg/injection, schedule: Q01DX009 (ip), vehicle: saline",103 % of control
same,T/C,[8],95 % of control
same,T/C,"dose: 200.0 mg/kg/injection, schedule: Q01DX009 (ip), vehicle: saline",98 % of control
same,T/C,[9],93 % of control
CC(=O)Nc1ccc2c([N+](=O)[O-])cccc2c1-c1c(NC(C)=O)ccc2c([N+](=O)[O-])cccc12,T/C,[15],101 % of control
same,T/C,[17],88 % of control
same,T/C,[16],105 % of control
same,T/C,[18],97 % of control
same,T/C,[19],98 % of control
same,T/C,[20],92 % of control
O=S(=O)(Cl)c1ccccc1Cl,T/C,"dose: 50.0 mg/kg/injection, schedule: Q01DX001 (ip), vehicle: Klucel (hydroxypropylcellulose) (HPC)",101 % of control
CCN(CC)c1ccc(NC(=O)Nc2ccccc2C)cc1,T/C,[1],93 % of control
same,T/C,[21],100 % of control
same,T/C,[2],90 % of control
same,T/C,[22],94 % of control
same,T/C,"dose: 400.0 mg/kg/injection, schedule: Q01DX009 (ip), vehicle: saline with Tween-80",94 % of control
same,T/C,[23],94 % of control
O=C(N/N=C\c1ccccc1Cl)C(=O)N/N=C\c1ccccc1Cl,T/C,[21],94 % of control
same,T/C,[22],94 % of control
same,T/C,[23],88 % of control
CCOC(=O)C(N)Cc1ccc(N(CCCl)CCCl)cc1 (centres undefined),T/C,"dose: 0.06 mg/kg/injection, schedule: Q01DX Z (ip), vehicle: saline",99 % of control
same,T/C,"dose: 0.13 mg/kg/injection, schedule: Q01DX Z (ip), vehicle: saline",124 % of control
same,T/C,"dose: 0.5 mg/kg/injection, schedule: Q01DX Z (oral), vehicle: saline",120 % of control
same,T/C,"dose: 2.0 mg/kg/injection, schedule: Q01DX Z (ip), vehicle: saline",122 % of control
same,T/C,"dose: 4.0 mg/kg/injection, schedule: Q01DX Z (ip), vehicle: saline",161 % of control and 190 % of control
same,T/C,"dose: 4.0 mg/kg/injection, schedule: Q01DX Z (oral), vehicle: saline",162 % of control and 168 % of control
same,T/C,"dose: 6.0 mg/kg/injection, schedule: Q01DX Z (ip), vehicle: saline",160 % of control and 164 % of control and 202 % of control
same,T/C,"dose: 9.0 mg/kg/injection, schedule: Q01DX Z (ip), vehicle: saline",162 % of control and 164 % of control and 172 % of control
same,T/C,"dose: 13.5 mg/kg/injection, schedule: Q01DX Z (ip), vehicle: saline",165 % of control
same,T/C,"dose: 16.0 mg/kg/injection, schedule: Q01DX Z (oral), vehicle: saline",87 % of control and 88 % of control
same,T/C,"dose: 20.0 mg/kg/injection, schedule: Q01DX Z (ip), vehicle: saline",97 % of control
COc1ccc(C(=O)c2ccccc2C)cc1OC,T/C,[11],95 % of control
same,T/C,[12],97 % of control
same,T/C,[13],91 % of control
Cc1ccc(NC(=O)c2ccccc2C(=O)O)cc1Cl,T/C,[15],93 % of control
same,T/C,[17],96 % of control
same,T/C,[16],98 % of control
same,T/C,[18],93 % of control
same,T/C,[19],95 % of control
same,T/C,[20],96 % of control
CCCCC(CCCC)c1ccccn1,T/C,[8],97 % of control
same,T/C,[9],97 % of control
same,T/C,[10],93 % of control
O=C(O)COc1ccc(Cl)cc1CC(Cl)CCl (centres undefined),T/C,"dose: 25.0 mg/kg/injection, schedule: Q01DX009 (ip), vehicle: Klucel (hydroxypropylcellulose) (HPC)",97 % of control
same,T/C,[14],119 % of control
same,T/C,[15],97 % of control and 100 % of control
